Results taken from patent US20230132093A1, “EXTRACELLULAR VESICLE-NLRP3 ANTAGONIST” (Codiak BioSciences, Inc., priority 2019, published 2023).
Entries after “also recorded” stand apart in the source; their conditions may differ.

What was measured:
mouse NLRP3 transcript = assay: NLRP3 knock down in mouse J774.1 cells, qRT-PCR; type: cell-based; conditions: 7-point titration
Description: In silico analysis of the mouse NLRP3 transcript was used to generate 100 candidate NLRP3 ASOs. Mouse J774.1 cells were treated in vitro with either 5 nM or 20 nM of each candidate NLRP3 ASO. NLRP3 expression was measured using qRT-PCR, and about 30 ASOs yielding a knock down of at least 50% were subjected to further analysis. The top 22 performing ASOs were then subjected to a 7-point titration of various concentrations in mouse J774.1 cells, and NLRP3 expression was again measured by qRT-PCR (FIGS. 4A-4V).

human NLRP3 = assay: IL-1β secretion in cultured primary human MO macrophages after ASO, LPS and ATP; type: cell-based; conditions: for IL-1β induction: 50 nM ASO; for IL-1β secretion relative to ASO scramble controls: most donor cell populations
Description: The top-performing ASOs were further analyzed using human monocytes isolated from whole blood. Isolated monocytes were cultured for seven to eight days in M-CSF. Cells were then seeded and cultured overnight. […] Three hours later, the cells were treated with 5 mM ATP. Three hours later, IL-1β levels were measured using AlpaLISA. Cholesterol-tagged ASOs were incubated with PTGFRN-overexpressing exosomes to load the ASOs on the surface of the exosomes.

[1] = tested on: primary human MO macrophages; assay: Cell viability of cultured primary human MO macrophages treated with ASO; type: cell-based
mouse NLRP3 reporter = assay: Knock down of HiBit-fused mouse NLRP3 reporter in HEK reporter cell line; type: cell-based; conditions: eleven concentrations
Description: A HEK reporter cell line was transfected with a mouse NLRP3 reporter contruct (FIG. 5A) to assay NLRP3 knockdown at eleven concentrations for the top five performing mouse ASOs (ASO Nos. 16, 19, 70, 98, and 43; FIG. 5B).

BMDM = assay: Viability of BMDM treated with LPS, ATP and mNLRP3 ASOs; type: cell-based, mouse
NLRP3 pathway = assay: IL-1β secretion in BMDM after ASO-RNAiMAX transfection, LPS and ATP; type: cell-based, mouse; conditions: 2 days post transfection, 200 ng/mL LPS 3 h, 5 mM ATP 3 h
Description: Bone marrow-derived macrophages (BMDM) can be used to determine whether knock down of NLRP3 has a downstream effect on activation of the NLRP3 pathway (FIGS. 6A-6B). BMDMs were transfected with increasing concentrations of the top five performing mouse ASOs (ASO Nos. 16, 19, 70, 98, and 43) as part of an ASO-RNAiMAX complex. Two days post transfection, the cells BMDM were treated with 200 ng/mL LPS. Three hour later, the BMDM were treated with 5 mM ATP. Three hours after ATP treatment, IL-1 β secretion was measured.

Substance	IC50 (mouse NLRP3 transcript) [nM]	Lowest % value (remaining NLRP3 transcript as a percent of starting levels) (mouse NLRP3 transcript) [%]	Knock down of NLRP3 in the HEK reporter cell line (mouse NLRP3 reporter)	Viability (BMDM)	IL-1β secretion (NLRP3 pathway)	other results
ASO No. 21: mouse NLRP3 ASO, SEQ ID NO: 207, Seq Start 392 (antisense TCGCCATTGAAGTCAATCAT; chemistry not fully specified)	30.1	33.07				
ASO No. 11: mouse NLRP3 ASO, SEQ ID NO: 206, Seq Start 2961 (antisense GCTTCGTAGATAGAGGTGTG; chemistry not fully specified)	28.2	30.70				
ASO 3094: human NLRP3 ASO, SEQ ID NO: 174 (antisense GTCGAAGCAGCACTCATGCG; chemistry not given here)						IL-1β induction (human NLRP3; 2 nM, 10 nM): dose dependent decrease; IL-1β secretion relative to ASO scramble controls (human NLRP3; 2 nM): reduced IL-1β secretion; IL-1β secretion relative to ASO scramble controls (human NLRP3; 10 nM): reduced IL-1β secretion; Cell viability ([1]; 2 nM ASO): remained stable; Cell viability ([1]; 10 nM ASO): remained stable; Cell viability ([1]; 50 nM ASO): dropped
ASO No. 43: mouse NLRP3 ASO, SEQ ID NO: 205, Seq Start 1132 (antisense CGTCAAAGGCCCCTTGTAGC; chemistry not given here)	15.4	48.37	dose-dependent knock down	increased viability	decreased IL-1β secretion at all doses tested	
ASO 2672: human NLRP3 ASO, SEQ ID NO: 166 (antisense AGTCCATGGCCCTTTGCACG; chemistry not given here)						IL-1β induction (human NLRP3; 2 nM, 10 nM): dose dependent decrease; IL-1β secretion relative to ASO scramble controls (human NLRP3; 2 nM): reduced IL-1β secretion; IL-1β secretion relative to ASO scramble controls (human NLRP3; 10 nM): reduced IL-1β secretion; Cell viability ([1]; 2 nM ASO): remained stable; Cell viability ([1]; 10 nM ASO): remained stable; Cell viability ([1]; 50 nM ASO): dropped
ASO No. 98: mouse NLRP3 ASO, SEQ ID NO: 204, Seq Start 3761 (antisense CGGGATGGTCAGTTAACAGG; chemistry not given here)	14.7	42.17		increased viability	decreased IL-1β secretion at all doses tested	Knock down of NLRP3 in the HEK reporter cell line (mouse NLRP3 reporter; listed as 98): dose-dependent knock down; also recorded: most robust knock down
ASO No. 19: mouse NLRP3 ASO, SEQ ID NO: 202, Seq Start 318 (antisense GATACAGCCTTTCTCGGGCG; chemistry not given here)	12.7	36.10	dose-dependent knock down	increased viability	decreased IL-1β secretion at all doses tested	
ASO No. 70: mouse NLRP3 ASO, SEQ ID NO: 203, Seq Start 2235 (antisense CGTTTTGACCCTATGACAGT; chemistry not given here)	13.4	30.43	dose-dependent knock down	increased viability	decreased IL-1β secretion at all doses tested	
ASO 1664: human NLRP3 ASO, SEQ ID NO: 143 (antisense CGTCAAAGGCACCTTGCAGC; chemistry not given here)						IL-1β induction (human NLRP3; 2 nM, 10 nM): dose dependent decrease; IL-1β secretion relative to ASO scramble controls (human NLRP3; 2 nM): reduced IL-1β secretion; IL-1β secretion relative to ASO scramble controls (human NLRP3; 10 nM): reduced IL-1β secretion; Cell viability ([1]; 2 nM ASO): remained stable; Cell viability ([1]; 10 nM ASO): remained stable; Cell viability ([1]; 50 nM ASO): dropped
ASO No. 48: mouse NLRP3 ASO, SEQ ID NO: 209, Seq Start 1262 (antisense TCCAAGGCTACCGGCCTCGT; chemistry not fully specified)	60.6	65.00				
ASO No. 16: mouse NLRP3 ASO, SEQ ID NO: 201, Seq Start 229 (antisense GCTTGCAACGGACACTCGTC; chemistry not given here)	6.56	36.10	dose-dependent knock down	increased viability	decreased IL-1β secretion at all doses tested	
ASO No. 55: mouse NLRP3 ASO, SEQ ID NO: 210, Seq Start 1740 (antisense CTCGCAGTCCACTTCCTTCT; chemistry not fully specified)	63.1	59.17				
ASO No. 41: mouse NLRP3 ASO, SEQ ID NO: 208, Seq Start 984 (antisense CTCTCGGCAGTGGATAAAGA; chemistry not fully specified)	57.3	52.30				
